Measurements reported in PubChem BioAssay AID330 (DTP/NCI, 2004).
Toxic doses and inconclusive results are not listed.

Test system: P388 leukemia ip, CD2F1 mice, survival T/C
Test: NCI In Vivo Anticancer Drug Screen. Data for tumor model P388 Leukemia (intraperitoneal) in CD2F1 (CDF1) mice
Conditions: endpoint: median survival time, higher = longer survival
Procedure, shortened: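 Mice carrying the transplanted tumor received test compound or vehicle. Survival was recorded in each group, and the value is the treated-group measurement divided by that of the vehicle-treated control group.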

[1] = dose: 50.0 mg/kg/injection, schedule: Q01DX009 (ip), vehicle: Klucel (hydroxypropylcellulose) (HPC)
[2] = dose: 100.0 mg/kg/injection, schedule: Q01DX009 (ip), vehicle: Klucel (hydroxypropylcellulose) (HPC)
[3] = dose: 200.0 mg/kg/injection, schedule: Q01DX009 (ip), vehicle: Klucel (hydroxypropylcellulose) (HPC)
[4] = dose: 50.0 mg/kg/injection, schedule: Q01DX009 (ip), vehicle: saline with Tween-80
[5] = dose: 100.0 mg/kg/injection, schedule: Q01DX009 (ip), vehicle: saline with Tween-80
[6] = dose: 50.0 mg/kg/injection, schedule: Q01DX005 (ip), vehicle: Klucel (hydroxypropylcellulose) (HPC)
[7] = dose: 100.0 mg/kg/injection, schedule: Q01DX005 (ip), vehicle: Klucel (hydroxypropylcellulose) (HPC)
[8] = dose: 200.0 mg/kg/injection, schedule: Q01DX005 (ip), vehicle: Klucel (hydroxypropylcellulose) (HPC)
[9] = dose: 25.0 mg/kg/injection, schedule: Q01DX009 (ip), vehicle: saline with Tween-80
[10] = dose: 200.0 mg/kg/injection, schedule: Q01DX009 (ip), vehicle: saline with Tween-80
[11] = dose: 1.0 mg/kg/injection, schedule: Q01DX009 (ip), vehicle: saline with Tween-80
[12] = dose: 50.0 mg/kg/injection, schedule: Q01DX005 (ip), vehicle: saline
[13] = dose: 100.0 mg/kg/injection, schedule: Q01DX005 (ip), vehicle: saline
[14] = dose: 7.5 mg/kg/injection, schedule: Q01DX009 (ip), vehicle: saline with Tween-80
[15] = dose: 15.0 mg/kg/injection, schedule: Q01DX009 (ip), vehicle: saline with Tween-80

CCOC(=O)C(=Cc1ccc(OC)c(OC)c1)C(=O)OCC
T/C (dose: 50.0 mg/kg/injection, schedule: Q01DX005 (ip), vehicle: saline with Tween-80): 110 % of control
T/C (dose: 100.0 mg/kg/injection, schedule: Q01DX005 (ip), vehicle: saline with Tween-80): 102 % of control
T/C (dose: 200.0 mg/kg/injection, schedule: Q01DX005 (ip), vehicle: saline with Tween-80): 103 % of control

NCCN1C(=O)c2ccccc2C1(O)c1ccc(Cl)cc1 (stereo unspecified)
T/C [1]: 102 % of control
T/C [2]: 97 % of control
T/C [3]: 98 % of control

Cc1ccc2nc(-c3ccc(CSC(=N)N)cc3)oc(=O)c2c1
T/C [4]: 93 % of control
T/C [5]: 89 % of control

N#Cc1nc(CC(=O)c2ccncc2)c(CC(=O)c2ccncc2)nc1C#N
T/C (dose: 60.0 mg/kg/injection, schedule: Q01DX005 (ip), vehicle: saline): 109 % of control
T/C (dose: 120.0 mg/kg/injection, schedule: Q01DX005 (ip), vehicle: saline): 106 % of control
T/C (dose: 240.0 mg/kg/injection, schedule: Q01DX005 (ip), vehicle: saline): 97 % of control

COc1ccc(OC)c(NC(=O)CCCC(=O)CC(=O)c2cccnc2)c1
T/C (dose: 60.0 mg/kg/injection, schedule: Q01DX005 (ip), vehicle: saline with Tween-80): 103 % of control
T/C (dose: 120.0 mg/kg/injection, schedule: Q01DX005 (ip), vehicle: saline with Tween-80): 103 % of control
T/C (dose: 240.0 mg/kg/injection, schedule: Q01DX005 (ip), vehicle: saline with Tween-80): 101 % of control

O=c1oc2c(ccc3nc(-c4ccccc4)sc32)c(N2CCOCC2)c1Cl
T/C [6]: 92 % of control
T/C [7]: 91 % of control
T/C [8]: 89 % of control

Brc1c(Br)c(Br)c2n[nH]nc2c1Br
T/C [9]: 103 % of control
T/C [4]: 106 % of control
T/C [5]: 103 % of control
T/C [10]: 115 % of control

Cn1c(=O)c2[nH]c(CN(CCCl)CCCl)nc2n(C)c1=O
T/C (dose: 0.66 mg/kg/injection, schedule: Q01DX009 (ip), vehicle: saline with Tween-80): 109 % of control
T/C [11]: 115 % of control
T/C (dose: 6.6 mg/kg/injection, schedule: Q04DX003 (ip), vehicle: saline with Tween-80): 95 % of control
T/C (dose: 10.0 mg/kg/injection, schedule: Q04DX003 (ip), vehicle: saline with Tween-80): 113 % of control
T/C (dose: 12.5 mg/kg/injection, schedule: Q01DX009 (ip), vehicle: saline with Tween-80): 263 % of control
T/C (dose: 12.5 mg/kg/injection, schedule: Q04DX003 (ip), vehicle: saline with Tween-80): 150 % of control
T/C [9]: 219 % of control
T/C (dose: 25.0 mg/kg/injection, schedule: Q04DX003 (ip), vehicle: saline with Tween-80): 163 % of control
T/C (dose: 50.0 mg/kg/injection, schedule: Q04DX003 (ip), vehicle: saline with Tween-80): 218 % of control

CC(=O)OC1(c2ccccc2)CCN(C)CC1C(=O)c1ccccc1 (stereo unspecified)
T/C [12]: 109 % of control
T/C [13]: 116 % of control

C/C(=C\c1c[nH]c2ccccc12)[N+](=O)[O-]
T/C [5]: 109 % of control
T/C [10]: 104 % of control
T/C (dose: 400.0 mg/kg/injection, schedule: Q01DX009 (ip), vehicle: saline with Tween-80): 124 % of control

OCC(O)C(O)C(O)C(O)CO.[Cu+2].[Cu] (stereo unspecified)
T/C (dose: 3.12 mg/kg/injection, schedule: Q01DX005 (ip), vehicle: Klucel (hydroxypropylcellulose) (HPC)): 88 % of control
T/C (dose: 6.25 mg/kg/injection, schedule: Q01DX005 (ip), vehicle: Klucel (hydroxypropylcellulose) (HPC)): 92 % of control

CSCCC(NC=O)C(=O)O (stereo unspecified)
T/C (dose: 3.12 mg/kg/injection, schedule: Q01DX009 (ip), vehicle: saline): 88 % of control
T/C (dose: 6.25 mg/kg/injection, schedule: Q01DX009 (ip), vehicle: saline): 91 % of control
T/C (dose: 12.5 mg/kg/injection, schedule: Q01DX009 (ip), vehicle: saline): 87 % of control
T/C (dose: 25.0 mg/kg/injection, schedule: Q01DX009 (ip), vehicle: saline): 92 % of control
T/C [12]: 98 % of control
T/C [13]: 98 % of control
T/C (dose: 200.0 mg/kg/injection, schedule: Q01DX005 (ip), vehicle: saline): 98 % of control

Cc1cccnc1-n1c(N)cc(=O)[nH]c1=S
T/C (dose: 50.0 mg/kg/injection, schedule: Q01DX001 (ip), vehicle: saline with Tween-80): 100 % of control
T/C (dose: 100.0 mg/kg/injection, schedule: Q01DX001 (ip), vehicle: saline with Tween-80): 100 % of control
T/C (dose: 200.0 mg/kg/injection, schedule: Q01DX001 (ip), vehicle: saline with Tween-80): 86 % of control

O=C(O)[C@@H]1[C@H](C(=O)O)[C@H](C(=O)O)C[C@@H]1C(=O)O
T/C (dose: 100.0 mg/kg/injection, schedule: Q01DX009 (ip), vehicle: saline): 108 % of control
T/C (dose: 200.0 mg/kg/injection, schedule: Q01DX009 (ip), vehicle: saline): 105 % of control

Cc1cc(OC(=O)c2c(C)cc(O)cc2O)cc(O)c1C(=O)O
T/C (dose: 0.25 mg/kg/injection, schedule: Q01DX009 (ip), vehicle: saline with Tween-80): 101 % of control
T/C (dose: 0.5 mg/kg/injection, schedule: Q01DX009 (ip), vehicle: saline with Tween-80): 102 % of control
T/C [11]: 101 % of control

CSc1nc(N)c(C(=O)Nc2cccc3ccccc23)s1
T/C [1]: 100 % of control
T/C [2]: 97 % of control
T/C [3]: 97 % of control

COc1ccc(CC#N)cc1OC
T/C (dose: 3.75 mg/kg/injection, schedule: Q01DX009 (ip), vehicle: saline with Tween-80): 90 % of control
T/C [14]: 90 % of control
T/C [15]: 90 % of control

O=C(/C=C\c1ccccc1)c1ccccc1
T/C (dose: 100.0 mg/kg/injection, schedule: Q04DX002 (ip), vehicle: saline): 112 % of control
T/C (dose: 200.0 mg/kg/injection, schedule: Q04DX002 (ip), vehicle: saline): 110 % of control
T/C (dose: 400.0 mg/kg/injection, schedule: Q04DX002 (ip), vehicle: saline): 102 % of control

CC(C)C(NC(=O)OCC[P+](c1ccccc1)(c1ccccc1)c1ccccc1)C(=O)O (stereo unspecified)
T/C [4]: 116 % of control
T/C [5]: 103 % of control
T/C [10]: 91 % of control

Cc1ccc(S(=O)(=O)Nc2ccccc2OCCN(CCOc2ccccc2NS(=O)(=O)c2ccc(C)cc2)S(=O)(=O)c2ccc(C)cc2)cc1
T/C [4]: 96 % of control
T/C [5]: 99 % of control
T/C [10]: 93 % of control

N#CC(c1ccccc1)C(c1ccccc1)c1cccc2ccccc12 (stereo unspecified)
T/C (dose: 6.25 mg/kg/injection, schedule: Q01DX009 (ip), vehicle: suspension in saline): 98 % of control
T/C (dose: 12.5 mg/kg/injection, schedule: Q01DX009 (ip), vehicle: suspension in saline): 97 % of control
T/C (dose: 25.0 mg/kg/injection, schedule: Q01DX009 (ip), vehicle: suspension in saline): 97 % of control
T/C (dose: 50.0 mg/kg/injection, schedule: Q01DX009 (ip), vehicle: suspension in saline): 97 % of control
T/C (dose: 100.0 mg/kg/injection, schedule: Q04DX002 (ip), vehicle: saline with Tween-80): 104 % of control
T/C (dose: 200.0 mg/kg/injection, schedule: Q04DX002 (ip), vehicle: saline with Tween-80): 101 % of control
T/C (dose: 400.0 mg/kg/injection, schedule: Q04DX002 (ip), vehicle: saline with Tween-80): 107 % of control

CCCCCCCCCCCCCCC(O)c1cccc(OC)c1 (stereo unspecified)
T/C [14]: 109 % of control
T/C [15]: 113 % of control
T/C (dose: 30.0 mg/kg/injection, schedule: Q01DX009 (ip), vehicle: saline with Tween-80): 109 % of control

CCN(CC)CCN1C=CC(=C2C(=O)c3ccccc3C2=O)C=C1
T/C (dose: 60.0 mg/kg/injection, schedule: Q01DX005 (ip), vehicle: Klucel (hydroxypropylcellulose) (HPC)): 99 % of control
T/C (dose: 120.0 mg/kg/injection, schedule: Q01DX005 (ip), vehicle: Klucel (hydroxypropylcellulose) (HPC)): 101 % of control
T/C (dose: 240.0 mg/kg/injection, schedule: Q01DX005 (ip), vehicle: Klucel (hydroxypropylcellulose) (HPC)): 99 % of control

O=[N+]([O-])c1ccc(N2C(c3ccccc3)=N[C@@H](N3CCCCC3)[C@@H]2N2CCCCC2)cc1
T/C [6]: 97 % of control
T/C [7]: 100 % of control
T/C [8]: 93 % of control

CN(C)N=Nc1ccc(S(N)(=O)=O)cc1
T/C (dose: 25.0 mg/kg/injection, schedule: Q01DX009 (ip), vehicle: Klucel (hydroxypropylcellulose) (HPC)): 93 % of control
T/C [1]: 114 % of control
T/C [2]: 100 % of control
